Columns and labels:
MC38 tumors = assay: MC38 tumor model, alone or combined with radiotherapy, with ex vivo analysis; assay type: in vivo, C57BL/6 mice
Method: BABL/c mice were subcutaneously (s.c.) injected with 2 × 10^5 CT26 cells on the right back, and C57BL/6 mice were injected with 1 × 10^6 MC38 cells. One week later, tumor-bearing mice were randomized into indicated groups, and intraperitoneal (i.p.) injected with azelnidipine or normal saline every day for two weeks. Tumor volumes were measured every other day by the (a) length, (b) width, and (c) height and calculated as volume (V) = a × b × c/2. For the combinational model of azelnidipine and radiotherapy (RT), MC38 tumor-bearing mice received irradiation (IR) when the tumors reached 80–100 mm^3. The mice received one dose of 20 Gy irradiation at the tumor local site, and followed by the treatment of azelnidipine.
Tumor-bearing mice were sacrificed at the end of the treatment. The tumors were dissected and digested into single cell with an enzyme cocktail of 100 U/mL collagenase IV; and Dnase I. The infiltration of CD8^+ T cells at the tumor site was detected by flow cytometry by staining of anti-mouse CD45, anti-mouse CD3, anti-mouse CD8α or isotype control. The MDSCs at the tumor site were analyzed by staining of anti-mouse CD45, anti-mouse CD11b, anti-mouse Ly6C, and anti-mouse Ly6G. […] The frequency of IFN-γ secreting CD8^+ T cells were counted according to the fluorescence minus one (FMO) control with the isotype control of IFN-γ antibody. […]

CT26 tumors = assay: CD8+ T cell depletion CT26 tumor model; assay type: in vivo, BALB/c mice
Method: To establish the CD8^+ T cell depletion model, BALB/c mice were injected with 200 μg of CD8-depleting antibody (clone: YTS169.4) or matched Rat IgG isotype control (Sigma-Aldrich) the day before tumor inoculation and as well as weekly thereafter, resulting in a total of 3 injections per mouse. Depletion efficacy of CD8^+ T cells was verified by a flow cytometry with the blood sample of mice treated with indicated antibodies for 7 days.
Figure S2. The antitumor effects of Azelnidipine in CD8+ T cell depleted CT26 tumor model.
(A) CT26 tumor-bearing mice were i.p. administrated with 5 mg/kg of Azelnidipine daily as in the schematic diagram. (B) Blood samples of the mice treated with 200 μg anti-CD8 (YTS 169.4) or Rat IgG control for seven days were used to analyze the depletion efficacy by flow cytometry.
(C) Tumor growth curve of CT26 tumor-bearing mice treated with normal saline or Azelnidipine alone (n = 5 or 6). (D) Representative flow cytometry plots and summary data of the MDSCs in the tumor tissues of the Rat IgG treated groups (NS and Azelnidipine). (E) Representative flow cytometry histograms and summary data of the expression of SIRPα on M-MDSCs in the tumor tissues of the Rat IgG treated groups (NS and Azelnidipine). *, P<0.05.
(§1) (1 picture or pasted object on this page, not shown here)

PVR = assay: Flow cytometry of PVR expression on tumor cells from CT26-bearing mice; assay type: in vivo, mouse; conditions: 5 mg/kg for twelve days, CD45- tumor cells
Method: Cells in good growth condition were harvested and used to detect the expression of CD47 and PVR. Antibodies anti-human CD47 APC, anti-human PVR PE, anti-mouse-CD47 APC, anti-mouse-PVR APC, and matched isotype controls were purchased from eBioscience, San Diego, CA, USA. The effects of azelnidipine on the expression of CD47 and PVR was determined by incubating CT26 cells with 20 μM of azelnidipine for 24 h, or directly analyzing the tumor cells from tumor tissues of CT26-bearing mice treated with or without azelnidipine.
Figure S3. The effects of Azelnidipine on the expression of CD47 and PVR on CT26 tumor cells. (A and B) CT26 cells were incubated with 20 μM Azelnidipine or vehicle control for 24h, and analyzed the expression of CD47 (A) and PVR (B). The gray shaded histogram represents the isotype, the red line represents the cells treated with vehicle control, and the blue line represents the cells treated with Azelnidipine. (C and D) Tumor cells (CD45-) derived from the tumor tissues of CT26 tumor-bearing mice treated with normal saline (NS) or 5 mg/kg Azelnidipine for twelve days, were analyzed for the expression of CD47 (C) and PVR (D). n.s. means not […]
as §1

[1] = 5 mg/kg i.p., Rat IgG treated groups

CC1=C(C(=O)OC(C)C)C(c2cccc([N+](=O)[O-])c2)C(C(=O)OC2CN(C(c3ccccc3)c3ccccc3)C2)=C(N)N1 (stereo not shown) [Azelnidipine]
growth of MC38 tumors, combination with IR (MC38 tumors; 5 mg/kg i.p. each day combined with 20 Gy local IR): remarkably suppress tumor growth | growth of MC38 tumors (MC38 tumors; 2 and 5 mg/kg i.p. each day for 2 weeks, alone): significantly restrict | anti-tumor effect with CD8+ T cells depleted (CT26 tumors; 5 mg/kg i.p. daily, CD8-depleting antibody): abrogated | CT26 tumor growth, Rat IgG treated groups (CT26 tumors; 5 mg/kg i.p. daily, Rat IgG isotype control): significantly inhibit tumor growth | expression level of SIRPα on MDSCs in CT26 tumor tissues, NS vs azelnidipine (CT26 tumors; [1]): no significant difference | infiltration of MDSCs in CT26 tumor tissues, NS vs azelnidipine (CT26 tumors; [1]): no significant difference | expression of PVR on CT26 tumor cells derived from tumor tissues (PVR): could inhibit the expression of PVR
